Results reported in PMC10421400, “Methoxylated Flavonols and ent-Kaurane Diterpenes from the South African Helichrysum rutilans and Their Cosmetic Potential” (Plants, 2023).
Where “and” joins values, the source holds several entries; their conditions need not be identical. Identical values can stand only once. Like-named read-outs stand apart in the source and are kept apart here.

Assays:
elastase = target: T1, elastase (Sus scrofa, UniProt P00772); assay: Elastase inhibition assay; type: biochemical, porcine
T1 construct: purchased Sigma-Aldrich CAS No. 39445-21-1 (catalogue number not given); host or cells: porcine pancreas
Method: Inhibition of elastase by the test samples was assayed using N-succ-(Ala)3-nitroanilide (SANA) as the substrate, monitoring the release of p-nitroanilide by the method described with little adjustment. The inhibitory activity determined the intensity of color released during cleavage of SANA by the action of elastase. The working reagent for anti-elastase assay was prepared in line with the literature. […] The sample stock solutions were prepared as 1 mg in 1 mL methanol. […] The mixtures were further incubated for 10 min and the absorbance was measured at 410 nm. […] The sample control involved the sample and SANA (uninhibited sample). The percentage of elastase inhibition was calculated as follows: 1−B/A×100
Elastase inhibition (%), where A is the enzyme activity without sample and B is the activity in the presence of the sample.
(§1) The data presented are means ± SD obtained from 96-well plate readers for all in vitro experiments in triplicate. Differences between the means were considered to be significant if p < 0.05 according to Prism’s one-way ANOVA. The ORAC, FRAP, and TEAC values were determined using their respective templates. Correlation coefficients among the methods used for determining total antioxidant assays (FRAP, TEAC, and ORAC), as well as skin enzymes inhibitions (tyrosinase anf elastase), were determined using SPSS version 21. Values at p < 0.05 were considered significant.

[1] = Ferric-ion-reducing antioxidant power (FRAP) assay; conditions: ascorbic acid equivalents; sample stock 1 mg/mL; read at 593 nm after 30 min
Method: Working FRAP reagent was prepared in accordance with the method described previously. In a 96-well clear microplate (visible range), 10 μL of the stock solution (1 mg/mL, w/v) of the isolated compounds (C-1–C-7) and a methanol extract (HR) were mixed each with 300 μL FRAP reagent. The FRAP reagent was a mixture (10:1:1, v/v/v) of acetate buffer (300 mM, pH 3.6), tripyridyl triazine (TPTZ) (10 mM in 40 mM HCl), and FeCl3·6H2O (20 mM). After incubation at room temperature for 30 min, the plate was read at a wavelength of 593 nm on a Multiskan spectrum plate reader. L-Ascorbic acid was used as a standard with concentrations varying between 0 and 1000 μM. Further dilutions were carried out on the samples that were highly concentrated and such dilution factors were recorded and used for the calculations of the affected samples. The results were expressed as μM ascorbic acid equivalents per milligram dry weight (μM AAE/g) of the test samples.

[2] = Trolox equivalent absorbance capacity (TEAC) assay; conditions: trolox equivalents; sample stock 1 mg/mL; read at 734 nm after 30 min
Method: The total antioxidant activity of the test sample was measured using previously described methods. The stock solutions which contained 7 mM ABTS and 140 mM potassium-peroxodisulphate (K2S2O8) (Merck, Johannesburg, South Africa) were prepared and kept at −2 °C. The working solution was then prepared by adding 88 μL K2S2O8 solution to 5 mL ABTS solution. The two solutions were thoroughly mixed and allowed to react for 24 h at room temperature in the dark. Trolox (6-hydrox-2,5,7,8-tetramethylchroman-2-carboxylic acid) was used as the standard with concentrations ranging between 0 and 500 μM. After 24 h, the ABTS mix solution was diluted with ethanol to read a start-up absorbance (control) of approximately 2.0 (±0.1). The stock solution (1 mg/mL) of a methanol extract (HT) and purified compounds (25 μL) were allowed to react with 300 μL ABTS in the dark at room temperature for 30 min. The absorbance was read at 734 nm at 25 °C on the plate reader. The results were expressed as μM trolox equivalents per milligram dry weight (μM TE/g) of the test samples.

[3] = Automated ORAC assay, peroxyl radical (AAPH); conditions: for ORAC Peroxyl: trolox equivalents, AAPH-generated peroxyl radical, fluorescein probe; for ORAC peroxyl radical: scaled × 10^3
Method: (§2) ORAC was carried out according to the previous method with some modifications. […] The analyzer was programmed to record the fluorescence of fluorescein every 2 min after AAPH, or H2O2-Cu^2+ was added. The fluorescein solution and sample were added to the wells of an illuminated 96-well plate, and 12 µL of each of our samples (in stock solution of 1 mg/mL) was combined with 138 µL of a fluorescein working solution followed by the addition of 50 µL of 150 mg of AAPH prepared in situ in 6 mL phosphate buffer. Absorbance was measured using the Fluoroskan spectrum plate reader with the excitation wavelength set at 485 nm and the emission wavelength at 530 nm. A calibration curve was established using a trolox stock solution of concentrations in the range of 83–417 µM (R^2 = 0.9514). The ORAC values were calculated using a regression equation (Y = a + bX + cX^2) between trolox concentration (Y in µM) and the net area under the fluorescence decay curve (X). ORAC values were expressed as micromoles of trolox equivalents (TEs) per milligram of test sample. Samples without a perfect curve were further diluted and the dilution factors were used for the result calculations of such samples.

[4] = Automated ORAC assay, hydroxyl radical (H2O2-Cu2+); conditions: trolox equivalents; H2O2-Cu2+-generated hydroxyl radical; fluorescein probe
Method: as §2

[5] = tested on: Fe2+-induced lipid peroxidation in microsomes from an S9 liver fraction; assay: Inhibition of Fe(II)-induced microsomal lipid peroxidation (TBARS); type: biochemical; conditions: TBARS at 532 nm, Table 2 head prints no unit, IC50 in µg/mL
Method: A previously described method was used with a few modifications. The reaction mixture contained microsomes (1 mg of protein/mL in 0.01 M potassium phosphate buffer; pH 7.4, supplemented with 1.15% KCl, m/v) isolated from an S9 liver fraction using a sepharose column. The positive control included microsomes, buffer, and ferrous sulphate, in the absence of the samples to be tested.
The sample stock solutions (HR and C-1–C-7) were prepared in methanol (1 mg/mL, w/v). The working sample solutions were prepared in 0.01M potassium phosphate buffer, pH 7.4, supplemented with 1.15% KCl (m/v) diluted to 26.750, 13.375, 6.688, 3.344, 1.672, and 0.836 µg/mL concentrations. A total of 100 µL of each sample (working solutions) was dissolved in potassium phosphate buffer and pre-incubated with 500 µL microsomes at 37 °C for 30 min in a shaking water bath. A total of 200 µL of KCl buffer was added to the mixture, followed by 200 µL of a 2.5 mM ferrous sulphate solution and incubated at 37 °C for 1 h in a shaking water bath. The reaction was terminated with 10% trichloroacetic acid (TCA, m/v) solution (1 mL) containing 125 µL butylated hydroxytoluene (BHT, 0.01%) and 1 mM ethylenediaminetetraacetic acid (EDTA). Samples were centrifuged at 2000 rpm for 15 min; 1 mL of supernatant was mixed with 1 mL of 0.67% thiobarbituric acid (TBA) solution. The reaction mixture was then incubated in a water bath at 90 °C for 20 min and the absorbance was measured at 532 nm using Multiskan plate reader. EGCG, dissolved in methanol, was used as positive control. The percentage inhibition of TBARS formation relative to the positive control was calculated by Acontrol−Asample/Acontrol×100
as §1, with “All skin enzyme inhibitory assays and Fe^2+-induced lipid peroxidation assay calculations, expressed as percentage inhibitions ± SD, were performed using MS Excel 2013, while the final values, expressed as IC50, were determined using GraphPad prism 5.0. The data” for “The data”

[6] = porcine pancreatic elastase, SANA substrate, 410 nm, Table 3 head prints no unit, threshold 100 µg/mL, read-out: ELA (elastase inhibition)

T1 sequence (P00772 27-266): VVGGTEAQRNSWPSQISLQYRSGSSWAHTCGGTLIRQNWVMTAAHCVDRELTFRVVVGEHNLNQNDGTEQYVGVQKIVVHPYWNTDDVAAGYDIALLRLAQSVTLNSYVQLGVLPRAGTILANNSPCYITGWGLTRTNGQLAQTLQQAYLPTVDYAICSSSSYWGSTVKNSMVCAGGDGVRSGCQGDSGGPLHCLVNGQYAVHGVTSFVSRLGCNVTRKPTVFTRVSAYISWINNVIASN

Row | LPO (IC50, inhibition of Fe2+-induced lipid peroxidation) [5] | IC50 (elastase; [6]) | SMILES | IC50 (elastase) | FRAP [1] | TEAC [2] | ORAC Peroxyl [3] | ORAC Hydroxyl [4] | ORAC peroxyl radical [3]
1 |  |  | O=c1cc(CO)occ1O [KJA, kojic acid, reference compound] | > 704 µM |  |  |  |  | 
2 | 0.929 ± 4.11 µg/mL |  | O=C(O[C@@H]1Cc2c(O)cc(O)cc2O[C@@H]1c1cc(O)c(O)c(O)c1)c1cc(O)c(O)c(O)c1 [EGCG, Epigallocatechin gallate, reference compound] |  | 3326.45 ± 5.76 µM AAE/g | 11545.44 ± 17.28 µM TE/g | 14693.09 ± 5.53 µM TE/g | 3.862 ± 4.65 × 10^6 µM TE/g | 
3 | 13.123 ± 0.34 µg/mL | > 242 µM | C/C=C(\C)C(=O)Oc1c(O)c(OC)c(O)c2c(=O)c(OC)c(-c3ccccc3)oc12 [Compound C-1, 5,7,8-trihydroxy-3,6-dimethoxyflavone-8-O-2-methyl-2-butanoate] |  | 1251.45 ± 4.18 µM AAE/g | 1131.80 ± 6.41 µM TE/g | 3523.51 ± 3.22 µM TE/g | 2.114 ± 4.01 × 10^6 µM TE/g | 
4 | 14.90 ± 0.06 µg/mL | > 305 µM | COc1cc2oc(-c3ccccc3)c(OC)c(=O)c2c(O)c1OC [Compound C-4, 5-hydroxy-3,6,7-trimethoxyflavone] |  | 1119.44 ± 11.89 µM AAE/g | 1207.11 ± 7.21 µM TE/g | 2814.51 ± 5.20 µM TE/g | 1.917 ± 3.91 × 10^6 µM TE/g | 2.814 ± 5.20 × 10^3 µMTE/g
5 | >100 µg/mL | > 314 µM | C=C1C2CCC3C4(C)CCCC(C)(C(=O)O)C4CCC3(C2)C1O (stereo not drawn) [Compound C-7, 15-α-hydroxy-(-)-ent-kaur-16-en-19-oic acid] |  | 60.90 ± 7.90 µM AAE/g | 1424.51 ± 0.70 µM TE/g | 93.10 ± 13.68 µM TE/g | 0.845 ± 13.34 × 10^6 µM TE/g | 
6 | 11.64 ± 1.72 µg/mL | > 279 µM | COc1c(OC)c(O)c2c(=O)c(OC)c(-c3ccccc3)oc2c1OC [Compound C-3, 5-hydroxy-3,6,7,8-tetramethoxyflavone] |  | 1314.42 ± 2.42 µM AAE/g | 1378.10 ± 9.06 µM TE/g | 2431.30 ± 8.63 µM TE/g |  | 2.431 ± 8.63 × 10^3 µMTE/g
7 | >100 µg/mL | > 331 µM | C=C1CC23CCC4C(C)(C(=O)O)CCCC4(C)C2CCC1C3 (stereo not drawn) [Compound C-5, ent-kaurenoic acid] |  | 19.66 ± 8.12 µM AAE/g | 1105.00 ± 3.09 µM TE/g | 364.44 ± 6.71 µM TE/g | 0.429 ± 12.00 × 10^6 µM TE/g | 

Row | SMILES | LPO (IC50, inhibition of Fe2+-induced lipid peroxidation) [5] | IC50 (elastase; [6]) | IC50 (elastase) | FRAP [1] | TEAC [2] | ORAC Peroxyl [3] | ORAC Hydroxyl [4] | ORAC peroxyl radical [3]
8 | COc1c(O)c(OC)c2oc(-c3ccccc3)c(OC)c(=O)c2c1O [Compound C-2, 5,7-dihydroxy-3,6,8-trimethoxyflavone] | 16.421 ± 0.92 µg/mL and 16.42 ± 0.92 µg/mL | > 290 µM |  | 1402.62 ± 5.77 µM AAE/g | 1276.11 ± 1.32 µM TE/g | 2935.47 ± 0.13 µM TE/g | 2.413 ± 6.20 × 10^6 µM TE/g | 2.935 ± 0.13 × 10^3 µMTE/g
